In one assay the test system is Male ddk mice. Briefly: Forced swim test (FST), mean immobility time. The format is in vivo, mouse. As to conditions: for immobility period in FST: 4 mg/kg each (FIG. 2). The procedure: Male ddk mice weighing between 22 and 30 g, bred in the Center Animal House facility of Kaohsiung Medical University (KMU), Taiwan, were used. These experimental animals were housed under standard laboratory conditions and maintained on natural light and dark cycle, and had free access to food and water. Animals were acclimatized to laboratory conditions before the experiment. Each animal was used only once. All the experiments were carried out between 9 a.m. and 3 p.m. The experimental protocols were approved by the Animal Center of KMU, Taiwan.
Forced swim would induce immobility of an animal to simulate the phenomenon of human depression (Renard et al., 2003) and antidepressant was used to reverse this phenomenon (Kulkarni and Mehta, 1985). This test procedure was carried out according to the previous animal model (Reddy et al., 1998).
The doses of the drugs used were selected according to the previous studies (Patil et al., 2005). Different doses were administrated intraperitoneally in a fixed volume of 1 ml/100 g body weight for 30 minutes before the animals were subjected to test.
The possible participation of the NO/cGMP pathway in the antidepressant effect of Pulmodil was investigated. Mice were pretreated with NO/cGMP pathway regulation related drugs ([…], L-arginine, methylene blue or 7-nitroindazole), and then Pulmodil or vehicle was injected to the animal. Forced swim test was performed 30 minutes later.
The possible participation of the 5-HT pathway in the antidepressant effect of Pulmodul was investigated. Mice were pretreated with 5-HT pathway related drugs (DOI, m-CPP or SB200646), and then Pulmodil or vehicle was injected to the animal. Forced swim test was performed 30 minutes later.
Results expressed as mean (sec.)±S.E.M. and the data was analyzed using One-Way or Two-Way Analysis of Variance (ANOVA) where appropriate. If any statistically significant change was found, post-hoc comparisons were performed using a Dunnett's test. Data was deemed significant when P<0.05 was considered statistically significant.

In assay [1] the test system is cGMP concentration of mouse brain. Briefly: cGMP analysis of mouse brain (ELISA). In kind it is in vivo. As to conditions: 30 minutes post injection, basal (vehicle) 0.131±0.003. The procedure: Male mice were given Pulmodil with intraperitoneal (i.p.) injection, where mice were divided into three groups, and 0.5, 1 and 2 mg/kg Pulmodil respectively for each group. After 30-minute injection, mice were anesthetized with […] chloral hydrate, and then were fixed on the stereotaxic frame (Narishige, Japan) to obtain mice brain. The isolated brain was homogenized and extracted with 0.1 N HCl. The extract was centrifuged at 4° C., at 14,000 rpm for 30 minutes, and supernatant was collected to determine cGMP concentration, which was determined with commercial enzyme-linked immunosorbent assay (ELISA) kit (Assay Designs) by acetylation procedure.
Background: In an ELISA, binding on a coated surface is turned into a signal by an enzyme label.

The test system of assay [2] is Male ddk mice pre-treated with Reserpine. Briefly: Reserpine-induced forced swimming immobility. In kind it is in vivo, mouse. Conditions: for Reserpine-induced immobility: Reserpine 2 mg/kg pre-treatment, then 4 mg/kg, p<0.05 (FIG. 4).
Description: Male ddk mice weighing between 22 and 30 g, bred in the Center Animal House facility of Kaohsiung Medical University (KMU), Taiwan, were used. […] Animals were acclimatized to laboratory conditions before the experiment. Each animal was used only once. All the experiments were carried out between 9 a.m. and 3 p.m. […] This test procedure was carried out according to the previous animal model (Reddy et al., 1998). […] Mice were pretreated with NO/cGMP pathway regulation related drugs (Reserpine, L-arginine, methylene blue or 7-nitroindazole), and then Pulmodil or vehicle was injected to the animal. Forced swim test was performed 30 minutes later.

Regarding `COc1cc(CC(C)N)c(OC)cc1I` (stereo not drawn) [DOI, 1-(2,5-dimethoxy-4-iodophenyl)-2-aminopropane, reference compound], the immobility per se result in the assay with Male ddk mice (DOI 4 mg/kg i.p. alone (FIG. 8)) was “did not affect the immobility”.
With `CN(C)c1ccc2nc3ccc(=[N+](C)C)cc-3sc2c1` [Methylene blue, methylene blue, reference compound], the “immobility time per se” value with Male ddk mice (methylene blue 10 mg/kg i.p. alone (FIG. 6)) is “did not affect the immobility time”.
Take `Cl.Cn1c(=O)c2c(ncn2CCN2CCN(c3ccccc3Cl)CC2)n(C)c1=O` [Pulmodil, 7-[2-[4-(2-chlorophenyl)piperazinyl]ethyl]-1,3-dimethylxanthine.acid]: the “immobility period in mouse FST” value in the assay on Male ddk mice (4, 8 and 16 mg/kg, compared with vehicle, p<0.05 (FIG. 1)) is on record as “produced a decrease in immobility period”. Also, in the assay on Male ddk mice (7-nitroindazole 25 mg/kg i.p. for 30 minutes, then Pulmodil 8 mg/kg i.p., P<0.05 (FIG. 7)), the “immobility time after 7-nitroindazole pre-treatment” value was “shortened the immobility time”. For the same compound, in the assay with Male ddk mice (DOI 4 mg/kg i.p. for 30 minutes, then Pulmodil 4 or 8 mg/kg i.p., in comparison with FIG. 1, p<0.05 (FIG. 8)), the “immobility time after DOI pre-treatment” value is “prolonged the immobility time”. In the assay on Male ddk mice (L-arginine 750 mg/kg i.p. for 30 minutes, then Pulmodil 16 mg/kg i.p., compared to Pulmodil without L-arginine (FIG. 5)), the “immobility period after L-arginine pre-treatment” value is recorded as “increase in immobility period”. In addition, the “immobility time after SB200646 pre-treatment” value in the assay on Male ddk mice (SB200646 4 mg/kg i.p., then Pulmodil 4 or 8 mg/kg i.p., p<0.05 (FIG. 10)) is listed as “significantly reduced this immobility time”. For the same compound, in the assay on Male ddk mice (m-CPP 4 mg/kg i.p., then Pulmodil 4 or 8 mg/kg i.p., in comparison with FIG. 1, p<0.05 (FIG. 9)), the “immobility time after m-CPP pre-treatment” value was “shortened this immobility time”. The “immobility time after methylene blue pre-treatment” value in the assay on Male ddk mice (methylene blue 10 mg/kg i.p. for 30 minutes, then Pulmodil 8 mg/kg i.p., p<0.05 (FIG. 6)) is on record as “significantly decreased the immobility time”. Moreover, the “cGMP concentration in the brain” value is 0.201 ± 0.003 fmol/µg in assay [1] (0.5 mg/kg i.p.), 0.293 ± 0.023 fmol/µg in assay [1] (1 mg/kg i.p.) and 0.288 ± 0.0234 fmol/µg in assay [1] (2 mg/kg i.p.).
For `COC(=O)[C@H]1[C@H]2C[C@@H]3c4[nH]c5cc(OC)ccc5c4CCN3C[C@H]2C[C@@H](OC(=O)c2cc(OC)c(OC)c(OC)c2)[C@@H]1OC` [Reserpine], the “immobility period in mouse FST, Reserpine alone” value in assay [2] (Reserpine 2 mg/kg, p<0.05 (FIG. 3)) is given as “increased immobility period”.
As for `Cl.Cn1ccc2cc(NC(=O)Nc3cccnc3)ccc21` [SB200646, N-(1-methyl-1H-5-indolyl)-N′-(3-pyridinyl)urea hydrochloride, reference compound], the “immobility time per se” value in the assay on Male ddk mice (SB200646 4 mg/kg i.p. alone (FIG. 10)) is reported as “did not affect the immobility time”.
`CCCc1nn(C)c2c(=O)[nH]c(-c3cc(S(=O)(=O)N4CCN(C)CC4)ccc3OCC)nc12` [Sildenafil, reference compound]: the “immobility period in FST” value in the assay with Male ddk mice is “could not significantly affect immobility time”. Further, in assay [2], the Reserpine-induced immobility entry is given as “significantly inhibited”.
In the case of `O=c1n(CCCN2CCN(c3cccc(Cl)c3)CC2)nc2ccccn12` [Trazodone, reference compound], the “immobility period in FST” value in the assay on Male ddk mice is given as “significantly decreased the immobility period”. The Reserpine-induced immobility entry in assay [2] is “significantly inhibited”.
For the compound `Clc1cccc(N2CCNCC2)c1` [m-CPP, meta-chlorophenylpiperazine, reference compound], in the assay on Male ddk mice (m-CPP 4 mg/kg i.p. alone, p<0.05 vs vehicle (FIG. 9)), the “immobility time per se” value was “mildly increased the immobility time”.
For the compound `Cn1c(=O)c2c(ncn2CCN2CCN(c3ccccc3Cl)CC2)n(C)c1=O` [xanthine-based compound, 7-[2-[4-(2-chlorophenyl)piperazinyl]ethyl]-1,3-dimethylxanthine], the “immobility period after Reserpine pre-treatment” value in assay [2] (Reserpine 2 mg/kg for 4 hours, then 2, 3, 4 or 8 mg/kg, p<0.05 vs Reserpine (FIG. 3)) is “dose-dependently reduced the immobility period”. Further, in assay [2], the Reserpine-induced immobility entry is listed as “significantly inhibited”.

The values are drawn from patent US20120094985A1, “PHARMACEUTICAL COMPOSITIONS COMPRISING CHLOROPHENYL PIPERAZINE DERIVED COMPOUNDS AND USE OF THE COMPOUNDS IN PRODUCING MEDICAMENTS” (KAOHSIUNG MEDICAL UNIVERSITY, priority 2009, published 2012).
